Series [1] has as its target human NaV1.6 (hNaV1.6) (Homo sapiens (Human), UniProt Q9UQD0). Briefly: INaL inhibition at hNaV1.6, PatchXpress electrophysiology. In kind it is cell-based. The protocol:
Functional characterization of exemplary compounds to modulate INaL expressed by the Nay 1.6 voltage-gated sodium channel was accomplished using the PatchXpress™ high throughput electrophysiology platform (Molecular Devices, Sunnyvale, Calif.). HEK-293 cells expressing recombinant, human NaV1.6 (hNaV1.6) were grown in DMEM/high-glucose Dulbecco's modified, 10% FBS, 2 mM sodium pyruvate, 10 mM HEPES and 400 μg/mL G418. Cells were grown to 50%-80% confluency prior to harvesting. […] The onboard liquid handling facility of the PatchXpress was used for dispensing cells and applying test compounds. Nay late currents were evoked by the application of 300 nM ATX-II. […] INaL amplitude and stability were determined by analyzing the mean current amplitude over the final 20 ms of the test pulse. […] Percent steady-state inhibition of INaL was calculated as: [(INaL_compound)/(INaL_control)]*100, where INaL_compound and INaL_control represent INaL recorded in the presence or absence of compound, respectively.

Series [2] concerns the target CYP1A2 (Homo sapiens (Human), UniProt P05177). In words: CYP1A2 inhibition in human liver microsomes. In kind it is in vitro ADME. The note with it: pooled human liver microsomes, marker substrate Phenacetin. The protocol: The specific marker metabolites are measured with LC/MS/MS. The remaining enzymatic activities and inhibitory potency IC50 are determined. Microsomes are removed out of the −80° C. freezer to thaw on ice and 20 μL of the substrates solution added to the corresponding wells. […] Then 158 μL of the HLM working solution was added to all wells of the incubation plate. The plate was pre-warmed for about 10 min using a 37° C. water bath. Then 20 μL of the NADPH cofactor solution was added to all incubation wells, mixed and incubated for 10 minutes at 37° C. water bath. The reaction is terminated by adding 400 μL cold stop solution (200 ng/mL Tolbutamide and 200 ng/mL Labetalol in ACN). […] Finally 200 μL of the supernatant was transferred to 100 μL HPLC water, shaken for 10 min and analyzed by LC/MS/MS. […] Equation for three parameters logistic sigmoidal curve: […]
For orientation: Liver microsomes are a subcellular fraction often used to study metabolism.

Series [3] is described as follows: PK rat clearance experiment. In kind it is in vivo. As to conditions: male Sprague-Dawley rats, single intravenous bolus 0.5 mg/kg, plasma.
Experimental: The IV dosing solution was prepared freshly on the dosing day. Test article (0.5 mg/kg) was prepared in a vehicle, for example, consisting of 5% DMSO/5% solutol/90% water. The concentrations of test article in all dosing solutions were determined by HPLC/UV. Three male Sprague-Dawley rats were used in this study. The animals were confirmed healthy before being assigned to the study. Each animal was given a unique identification number which was marked on the tail or the ear, and written on the cage card. All animals were fasted overnight before dosing and the food was returned at 4 hours post dosing. Water was provided to all animals ad libitum during the fasting period. Animals were weighed prior to dose administration on the day of dosing for calculating the actual dose volume. The body weights were in the range from 212 g to 223 g for males. All animals received test article by single intravenous bolus administration at 0.5 mg/kg. Approximately 0.2 mL blood was collected at each time point via jugular vein from each study animal. […] All blood samples were transferred into pre-labeled plastic micro centrifuge tubes and mixed with the pre-loaded anti-coagulant K2EDTA (5 μL, 0.5 M). Plasma samples were then prepared by centrifuging the blood samples. All plasma samples were then quickly frozen over dry ice and kept at −60° C. or lower until LC/MS/MS analysis. The concentrations of test article in plasma were determined by using a quantitative bioanalytical LC/MS/MS method. The lower limit of quantitation (LLOQ) for test article in plasma was 1 ng/mL, and the upper limit of quantitation (ULOQ) in plasma was 3000 ng/mL. The plasma concentration of test article in rats was subjected to a non compartmental pharmacokinetic analysis by using the Phoenix WinNonlin software (version 6.3, Pharsight, Mountain View, Calif.). The linear/log trapezoidal rule was applied in obtaining the PK parameters.
The target in series [4] is human NaV1.5 late sodium current (INaL) (Homo sapiens (Human), UniProt Q14524). Briefly: INaL inhibition at hNaV1.5, PatchXpress electrophysiology. Type of series: cell-based. The note with it: HEK-293 cells expressing recombinant human NaV1.5, HEK-293 cells expressing hNaV1.5, late current evoked by 300 nM ATX-II, read-out: INaL v1.5 (1 μM, % Inhibition).
Where [5] appears, read: HEK293, 1 μM, HEK-293 cells expressing hNaV1.6, late current evoked by 300 nM ATX-II, read-out: INaL v1.6 (1 μM, % Inhibition).
Setting [6] is: HEK293, read-out: INaL v1.6 (1 μM, % Inhibition).

Like-named read-outs stand apart in the source and are kept apart here.

Here are results for 37 compounds from US11629146B2, “Substituted [1,2,4]triazolo[4,3-a]pyrazines as modulators of sodium channel activity” (Praxis Precision Medicines, Inc., priority 2016, dated 2023).

Chain of CYP1A2 (P05177 whole entry): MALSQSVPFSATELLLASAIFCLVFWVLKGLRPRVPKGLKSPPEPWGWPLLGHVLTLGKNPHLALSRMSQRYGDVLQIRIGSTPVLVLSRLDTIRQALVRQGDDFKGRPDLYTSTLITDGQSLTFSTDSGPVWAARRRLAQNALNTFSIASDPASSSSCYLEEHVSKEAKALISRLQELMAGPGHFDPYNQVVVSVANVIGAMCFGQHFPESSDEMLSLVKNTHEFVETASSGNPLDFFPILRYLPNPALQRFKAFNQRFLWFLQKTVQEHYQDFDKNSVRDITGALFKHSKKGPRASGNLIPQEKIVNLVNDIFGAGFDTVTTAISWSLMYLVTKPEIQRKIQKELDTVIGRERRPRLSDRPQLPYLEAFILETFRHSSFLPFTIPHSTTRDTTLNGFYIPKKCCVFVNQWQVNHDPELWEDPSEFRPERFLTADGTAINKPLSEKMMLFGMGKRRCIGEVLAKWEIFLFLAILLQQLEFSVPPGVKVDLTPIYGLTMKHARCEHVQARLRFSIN
Chain of human NaV1.5 late sodium current (INaL) (Q14524 whole entry): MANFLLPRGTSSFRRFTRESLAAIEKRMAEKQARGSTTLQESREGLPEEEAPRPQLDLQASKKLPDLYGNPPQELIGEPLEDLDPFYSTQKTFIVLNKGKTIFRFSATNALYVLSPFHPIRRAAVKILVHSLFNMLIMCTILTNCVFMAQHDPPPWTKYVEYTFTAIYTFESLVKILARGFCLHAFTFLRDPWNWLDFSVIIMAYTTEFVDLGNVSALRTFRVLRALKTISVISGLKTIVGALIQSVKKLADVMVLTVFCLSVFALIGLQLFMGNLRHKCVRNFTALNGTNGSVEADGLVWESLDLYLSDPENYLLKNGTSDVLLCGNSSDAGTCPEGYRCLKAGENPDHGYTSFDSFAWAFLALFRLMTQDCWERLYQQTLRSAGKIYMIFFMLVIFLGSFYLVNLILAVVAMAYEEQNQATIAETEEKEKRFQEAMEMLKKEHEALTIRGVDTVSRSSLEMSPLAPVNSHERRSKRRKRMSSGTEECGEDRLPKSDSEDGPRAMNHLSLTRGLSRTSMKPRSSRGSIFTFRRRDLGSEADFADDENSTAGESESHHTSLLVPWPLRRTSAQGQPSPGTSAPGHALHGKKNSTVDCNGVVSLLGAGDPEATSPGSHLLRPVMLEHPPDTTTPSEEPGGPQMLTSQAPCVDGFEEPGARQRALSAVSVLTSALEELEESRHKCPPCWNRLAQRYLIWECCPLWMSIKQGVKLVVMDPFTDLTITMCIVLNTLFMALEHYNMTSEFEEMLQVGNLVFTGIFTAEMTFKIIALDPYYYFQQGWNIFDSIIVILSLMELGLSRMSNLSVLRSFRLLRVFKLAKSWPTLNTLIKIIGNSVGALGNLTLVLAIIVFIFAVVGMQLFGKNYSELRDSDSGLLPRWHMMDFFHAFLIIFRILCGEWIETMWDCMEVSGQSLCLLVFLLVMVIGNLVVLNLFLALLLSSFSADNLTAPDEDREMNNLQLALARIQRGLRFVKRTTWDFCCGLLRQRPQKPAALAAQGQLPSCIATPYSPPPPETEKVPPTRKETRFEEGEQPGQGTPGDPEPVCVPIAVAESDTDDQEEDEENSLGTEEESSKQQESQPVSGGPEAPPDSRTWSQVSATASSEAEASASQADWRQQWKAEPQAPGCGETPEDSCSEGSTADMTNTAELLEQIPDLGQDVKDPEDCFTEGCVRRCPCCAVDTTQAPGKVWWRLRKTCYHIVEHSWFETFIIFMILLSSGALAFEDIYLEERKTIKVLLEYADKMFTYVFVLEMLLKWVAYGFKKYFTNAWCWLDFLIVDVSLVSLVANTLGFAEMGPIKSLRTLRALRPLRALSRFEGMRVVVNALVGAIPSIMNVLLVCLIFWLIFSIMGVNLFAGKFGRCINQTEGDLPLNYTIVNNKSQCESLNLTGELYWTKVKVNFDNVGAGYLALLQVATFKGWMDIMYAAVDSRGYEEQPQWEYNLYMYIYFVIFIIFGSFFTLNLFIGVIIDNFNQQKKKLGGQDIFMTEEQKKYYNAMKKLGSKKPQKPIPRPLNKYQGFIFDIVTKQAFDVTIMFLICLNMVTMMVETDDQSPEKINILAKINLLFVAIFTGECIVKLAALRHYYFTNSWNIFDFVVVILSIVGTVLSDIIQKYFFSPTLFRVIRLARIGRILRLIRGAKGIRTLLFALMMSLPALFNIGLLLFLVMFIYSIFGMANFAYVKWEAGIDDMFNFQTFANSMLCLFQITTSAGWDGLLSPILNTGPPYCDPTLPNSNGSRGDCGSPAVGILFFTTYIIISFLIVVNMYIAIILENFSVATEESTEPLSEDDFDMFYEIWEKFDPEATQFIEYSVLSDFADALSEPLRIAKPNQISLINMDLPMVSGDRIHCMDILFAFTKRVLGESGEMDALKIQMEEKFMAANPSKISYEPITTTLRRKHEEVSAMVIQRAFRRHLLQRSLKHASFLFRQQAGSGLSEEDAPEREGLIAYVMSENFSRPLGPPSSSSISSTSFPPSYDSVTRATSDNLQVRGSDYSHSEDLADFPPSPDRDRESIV
Chain of human NaV1.6 (hNaV1.6) (Q9UQD0 whole entry): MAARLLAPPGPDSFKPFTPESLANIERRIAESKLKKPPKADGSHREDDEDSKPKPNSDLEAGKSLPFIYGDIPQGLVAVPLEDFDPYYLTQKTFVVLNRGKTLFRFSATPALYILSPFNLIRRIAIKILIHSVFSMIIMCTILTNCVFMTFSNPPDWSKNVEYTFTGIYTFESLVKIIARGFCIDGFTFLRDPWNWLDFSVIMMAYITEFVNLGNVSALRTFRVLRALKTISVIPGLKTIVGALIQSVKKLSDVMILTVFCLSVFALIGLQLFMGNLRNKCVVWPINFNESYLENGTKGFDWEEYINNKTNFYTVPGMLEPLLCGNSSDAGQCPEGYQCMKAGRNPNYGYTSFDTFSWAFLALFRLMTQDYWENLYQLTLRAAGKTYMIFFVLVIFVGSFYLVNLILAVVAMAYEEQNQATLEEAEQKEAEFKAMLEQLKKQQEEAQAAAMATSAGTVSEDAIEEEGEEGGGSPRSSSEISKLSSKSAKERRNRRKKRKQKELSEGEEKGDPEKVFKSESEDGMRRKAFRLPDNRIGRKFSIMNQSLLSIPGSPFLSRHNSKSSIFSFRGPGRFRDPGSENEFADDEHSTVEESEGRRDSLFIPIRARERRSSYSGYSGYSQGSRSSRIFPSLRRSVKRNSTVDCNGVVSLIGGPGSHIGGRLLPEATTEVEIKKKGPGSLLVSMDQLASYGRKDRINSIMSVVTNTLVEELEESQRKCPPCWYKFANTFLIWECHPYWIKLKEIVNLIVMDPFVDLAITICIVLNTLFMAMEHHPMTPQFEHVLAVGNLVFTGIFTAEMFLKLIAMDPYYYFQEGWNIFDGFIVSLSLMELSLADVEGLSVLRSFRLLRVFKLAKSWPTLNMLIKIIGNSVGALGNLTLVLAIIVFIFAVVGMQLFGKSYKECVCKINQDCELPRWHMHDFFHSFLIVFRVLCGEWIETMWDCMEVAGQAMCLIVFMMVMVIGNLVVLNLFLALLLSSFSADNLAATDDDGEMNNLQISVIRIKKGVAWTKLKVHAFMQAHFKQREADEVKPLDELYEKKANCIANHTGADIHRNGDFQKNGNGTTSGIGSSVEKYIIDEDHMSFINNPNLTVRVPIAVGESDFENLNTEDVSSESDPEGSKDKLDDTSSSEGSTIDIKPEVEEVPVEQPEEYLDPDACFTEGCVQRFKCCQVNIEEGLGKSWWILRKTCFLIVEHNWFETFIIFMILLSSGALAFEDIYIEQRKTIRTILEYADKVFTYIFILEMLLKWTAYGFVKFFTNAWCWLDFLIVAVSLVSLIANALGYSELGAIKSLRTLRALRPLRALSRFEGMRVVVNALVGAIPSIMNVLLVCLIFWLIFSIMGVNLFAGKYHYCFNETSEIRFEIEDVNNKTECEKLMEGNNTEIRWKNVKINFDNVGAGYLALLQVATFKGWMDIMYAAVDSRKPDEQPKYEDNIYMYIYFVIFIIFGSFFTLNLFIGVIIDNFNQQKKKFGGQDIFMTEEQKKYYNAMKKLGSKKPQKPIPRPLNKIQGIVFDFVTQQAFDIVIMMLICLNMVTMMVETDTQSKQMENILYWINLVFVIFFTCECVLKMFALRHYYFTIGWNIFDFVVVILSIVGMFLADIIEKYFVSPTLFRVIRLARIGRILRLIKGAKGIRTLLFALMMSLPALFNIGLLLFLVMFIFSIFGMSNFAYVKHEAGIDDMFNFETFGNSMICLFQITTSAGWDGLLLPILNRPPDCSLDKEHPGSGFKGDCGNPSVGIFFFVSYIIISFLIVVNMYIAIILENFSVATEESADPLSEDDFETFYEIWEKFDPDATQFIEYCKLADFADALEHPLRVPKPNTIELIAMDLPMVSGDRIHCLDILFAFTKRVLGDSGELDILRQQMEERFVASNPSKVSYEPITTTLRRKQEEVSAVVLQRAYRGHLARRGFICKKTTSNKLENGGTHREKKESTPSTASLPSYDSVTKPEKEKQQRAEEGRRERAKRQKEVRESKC

In general, inhibition refers to the drop in the measured response relative to a control, in per cent. As usually defined, the IC50 is the concentration at which inhibition is half-maximal. Lower therefore signals greater potency in that assay. In the case of `FC(F)(F)Oc1ccc(-c2ccc3nnc(C[C@H]4CCCCO4)n3n2)cc1` (single isomer, unassigned) [Compound 42], the inhibition at 1 µM in series [1] (setting [5]) lay in the range of 30 to 70%. Moreover, the IC50 in series [2] is more than 30 µM.

Consider `FC(F)(F)Oc1ccc(-c2ccc3nnc(C[C@@H]4CCCCO4)n3n2)cc1` (single isomer, unassigned) [Compound 43], for which the inhibition at 1 µM in series [1] (setting [5]) was 30 to 70%. The IC50 in series [2] was more than 30 µM.

As to `FC(F)(F)c1nnc2ccc(-c3ccc([C@@H]4CC4(F)F)cc3)nn12` (single isomer, unassigned) [Compound 122], the inhibition at 1 µM in series [1] (setting [6]) was more than 70%. For the same compound, the IC50 in series [2] was less than 1 µM.

A word on the clearance: it is a measure of how efficiently the substance is removed, as volume per time. A low value points to a low capacity for elimination. Broadly, the half-life is the time needed for the level to fall by half in the phase considered. A higher half-life goes with slow loss. In series [3], `C[C@@H](Oc1ncc(-c2cn3c(C(F)(F)F)nnc3cn2)cc1F)C(F)(F)F` (single isomer, unassigned) [Compound 124] gave a clearance of 15.9 mL/min/kg and a half-life of 6.5 h. Moreover, in series [1] (setting [5]), the inhibition at 1 µM was more than 70%. In series [2], the IC50 is more than 30 µM.

Take `C[C@H](Oc1ncc(-c2cn3c(C(F)(F)F)nnc3cn2)cc1F)C(F)(F)F` (single isomer, unassigned) [Compound 125]: the inhibition at 1 µM in series [1] (setting [5]) was more than 70%. Also, the IC50 in series [2] is more than 30 µM.

Take `C[C@@H](Oc1ncc(-c2ccc3nnc(C(F)(F)F)n3n2)cc1F)C(F)(F)F` (single isomer, unassigned) [Compound 126]: the inhibition at 1 µM in series [1] (setting [5]) is more than 70%. Further, the IC50 in series [2] was more than 30 µM.

On to `C[C@H](Oc1ncc(-c2ccc3nnc(C(F)(F)F)n3n2)cc1F)C(F)(F)F` (single isomer, unassigned) [Compound 127], for which the inhibition at 1 µM in series [1] (setting [5]) was more than 70%. Further, the IC50 in series [2] is more than 30 µM.

Regarding `FC(F)(F)c1ccc(-c2ccc3nnc(C(F)(F)F)n3n2)cc1` [Compound 1], the results for the inhibition at 1 µM in series [1] (setting [5]) and in series [4] were more than 70% and more than 50%, respectively.

On to `Cc1cc(-c2ccc3nnc(C(F)(F)F)n3n2)ccc1OC(F)(F)F` [Compound 2], for which the figures for the inhibition at 1 µM in series [1] (setting [5]) and in series [4] were more than 70% and more than 50%, respectively.

As for `FC(F)(F)COc1ccc(-c2ccc3nnc(CC(F)(F)F)n3n2)cn1` [Compound 7], the inhibition at 1 µM in series [1] (setting [5]) was 30 to 70%; in series [4] it was less than 50%.

Regarding `FC(F)(F)COc1ccc(-c2ccc3nnc(C4CC4)n3n2)cn1` [Compound 8], the figures for the inhibition at 1 µM in series [1] (setting [5]) and in series [4] were 30 to 70% and more than 50%, respectively.

Take `FC(F)(F)COc1ccc(-c2ccc3nnc(C(F)(F)C(F)(F)F)n3n2)cn1` [Compound 9]: the inhibition at 1 µM in series [1] (setting [5]) was 30 to 70%; in series [4] it was more than 50%.

As for `COC(F)(F)c1nnc2ccc(-c3ccc(OC(F)(F)F)cc3)nn12` [Compound 41], the inhibition at 1 µM in series [1] (setting [5]) was more than 70%. This compound also yielded an IC50 in series [2] of less than 1 µM.

In series [3], `Cc1cc(OC(F)(F)F)ccc1-c1cn2c(C(F)F)nnc2cn1` [Compound 49] gave a clearance of 7.6 mL/min/kg and a half-life of 8.1 h. The inhibition at 1 µM in series [1] (setting [5]) was more than 70%. The compound also registered an IC50 in series [2] of 15 to 30 µM.

`Fc1cc(OC(F)(F)F)ccc1-c1cn2c(C(F)F)nnc2cn1` [Compound 52]: in series [1] (setting [5]), the inhibition at 1 µM was in the range of 30 to 70%. This compound also showed an IC50 in series [2] of 1 to 15 µM.

In series [3], `FC1(F)CC(Oc2ccc(-c3ccc4nnc(C(F)(F)F)n4n3)cc2)C1` [Compound 59] had a clearance of 39.8 mL/min/kg and a half-life of 0.8 h. Moreover, the inhibition at 1 µM in series [1] (setting [5]) fell in the range of 30 to 70%. For the same compound, the IC50 in series [2] is more than 30 µM.

Regarding `FC(F)(F)Oc1ccc(-c2ccc3nnc(C4(F)CC4)n3n2)cc1` [Compound 61], in series [3], the clearance turned out to be 1.6 mL/min/kg and the half-life is 15.2 h. The inhibition at 1 µM in series [1] (setting [5]) is more than 70%.

Turning to `Cc1cc(OC(F)(F)F)ccc1-c1cn2c(C(F)(F)F)nnc2cn1` [Compound 63], in series [3], the clearance worked out at 8.8 mL/min/kg and the half-life is 10.2 h. Also, the inhibition at 1 µM in series [1] (setting [5]) was more than 70%. In addition, in series [2], the IC50 was in the range of 15 to 30 µM.

In series [3], `FC1(F)CC(Oc2ccc(-c3ccc4nnc(C(F)(F)F)n4n3)cn2)C1` [Compound 65] gave a clearance of 31 mL/min/kg and a half-life of 0.55 h. Further, in series [1] (setting [5]), the inhibition at 1 µM is more than 70%. The compound further came in with an IC50 in series [2] of more than 30 µM.

For `Fc1cc(OC(F)(F)F)ccc1-c1cn2c(C(F)(F)F)nnc2cn1` [Compound 72], in series [1] (setting [5]), the inhibition at 1 µM was less than 30%. The IC50 in series [2] lay within 1 to 15 µM.

For the compound `Cc1cc(C(F)(F)F)ccc1-c1cn2c(C(F)(F)F)nnc2cn1` [Compound 73], in series [1] (setting [5]), the inhibition at 1 µM was in the range of 30 to 70%. This compound also returned an IC50 in series [2] of 1 to 15 µM.

Take `CC(C)Oc1ccc(-c2cn3c(C(F)(F)F)nnc3cn2)cc1` [Compound 77]: the inhibition at 1 µM in series [1] (setting [5]) was more than 70%. In series [2], this compound yielded an IC50 of 1 to 15 µM.

In the case of `Fc1cc(-c2cn3c(C(F)(F)F)nnc3cn2)cnc1OCC(F)(F)F` [Compound 78], in series [1] (setting [5]), the inhibition at 1 µM lay in the range of 30 to 70%. This compound also returned an IC50 in series [2] of more than 30 µM.

Turning to `COC(F)(F)c1nnc2ccc(-c3cnc(OCC(F)(F)F)c(F)c3)nn12` [Compound 96], in series [1] (setting [5]), the inhibition at 1 µM was more than 70%. In series [2], the IC50 was more than 30 µM.

As to `Cc1cc(C2(C#N)CC2)ccc1-c1ccc2nnc(C(F)(F)F)n2n1` [Compound 105], the inhibition at 1 µM in series [1] (setting [6]) lay in the range of 30 to 70%. This compound had an IC50 in series [2] of 15 to 30 µM.

In series [3], `Fc1cc(-c2ccc3nnc(C(F)(F)F)n3n2)cnc1OCC(F)(F)F` [Compound 107] showed a clearance of 13.9 mL/min/kg and a half-life of 1.9 h. Besides, the inhibition at 1 µM in series [1] (setting [5]) was more than 70%. The compound further registered an IC50 in series [2] of more than 30 µM.

In series [2], `FC(F)(F)Oc1ccc(-c2ccc3nnc(C(F)(F)F)n3n2)cc1` [Compound 108] returned an IC50 of 1 to 15 µM.

With `FC(F)(F)Oc1ccc(-c2cn3c(C4(F)CC4)nnc3cn2)cc1` [Compound 112], the inhibition at 1 µM in series [1] (setting [5]) was in the range of 30 to 70%. In addition, in series [2], the IC50 is 1 to 15 µM.

As to `COCc1cc(C(F)(F)F)ccc1-c1cn2c(C(F)(F)F)nnc2cn1` [Compound 113], the inhibition at 1 µM in series [1] (setting [5]) is more than 70%. The compound also had an IC50 in series [2] of 1 to 15 µM.

Turning to `COCc1cc(-c2ccc3nnc(C(F)(F)F)n3n2)ccc1OC(F)(F)F` [Compound 117], the inhibition at 1 µM in series [1] (setting [5]) is more than 70%. The IC50 in series [2] was 15 to 30 µM.

On to `Cc1cc(OC(F)(F)F)ccc1-c1ccc2nnc(C(F)F)n2n1` [Compound 136], for which, in series [1] (setting [5]), the inhibition at 1 µM was more than 70%. The compound further gave an IC50 in series [2] of 1 to 15 µM.

For `Fc1cc(-c2cn3c(C(F)(F)F)nnc3cn2)ccc1OC1CC(F)(F)C1` [Compound 194], the inhibition at 1 µM in series [1] (setting [5]) was in the range of 30 to 70%.

Regarding `CC(C)OCc1ccc(-c2cn3c(C(F)(F)F)nnc3cn2)cc1` [Compound 195], the inhibition at 1 µM in series [1] (setting [5]) was less than 30%.

For `OCc1ccc(-c2cn3c(C(F)(F)F)nnc3cn2)cc1` [Compound 196, [4-[3-(trifluoromethyl)-[1,2,4]triazolo[4,3-a]pyrazin-6-yl]phenyl]methanol], the inhibition at 1 µM in series [1] (setting [5]) is less than 30%.

As for `FC(F)c1nnc2cnc(-c3ccc(COC(F)(F)F)cc3)cn12` [Compound 197], in series [1] (setting [5]), the inhibition at 1 µM is 30 to 70%.

Take `C[C@@H](Oc1ccc(-c2ccc3nnc(C(F)(F)F)n3n2)cn1)C(F)(F)F` [Compound 199, 3-(trifluoromethyl)-6-[6-[(1R)-2,2,2-trifluoro-1-methyl-ethoxy]-3-pyridyl]-[1,2,4]triazolo[4,3-b]pyridazine]: in series [1] (setting [5]), the inhibition at 1 µM is more than 70%.

As for `C[C@H](Oc1ccc(-c2ccc3nnc(C(F)(F)F)n3n2)cn1)C(F)(F)F` [Compound 200, 3-(trifluoromethyl)-6-[6-[(1S)-2,2,2-trifluoro-1-methyl-ethoxy]-3-pyridyl]-[1,2,4]triazolo[4,3-b]pyridazine], the inhibition at 1 µM in series [1] (setting [5]) is more than 70%.
